Measured values: the supplement of paper PMC11281043

Key:
Conditions in all cases: exposure: 6-8 hpf to 5 dpf, scored at 6 dpf
Danio rerio embryo/larva [1] = experiment: max % larvae with pigmentation defects across tested concentrations; higher = more toxic
Danio rerio embryo/larva [2] = experiment: max % larvae with edema across tested concentrations; higher = more toxic; extreme values may be limits of the assay
Danio rerio embryo/larva [3] = experiment: max % larvae with spinal defects across tested concentrations; higher = more toxic; extreme values may be limits of the assay
Danio rerio embryo/larva [4] = experiment: max % larvae with craniofacial defects across tested concentrations; higher = more toxic; extreme values may be limits of the assay
Danio rerio embryo/larva [5] = experiment: max % larvae with abnormal position across tested concentrations; higher = more toxic; extreme values may be limits of the assay
Danio rerio embryo/larva [6] = experiment: max % larvae with uninflated swim bladder across tested concentrations; higher = more toxic; extreme values may be limits of the assay
Danio rerio embryo/larva [7] = experiment: max % larvae with blood pooling across tested concentrations; higher = more toxic; extreme values may be limits of the assay
Danio rerio embryo/larva [8] = experiment: max % larvae with tail defects across tested concentrations; higher = more toxic; extreme values may be limits of the assay
Danio rerio embryo/larva [9] = experiment: max % larvae generally abnormal across tested concentrations; higher = more toxic; extreme values may be limits of the assay
Danio rerio embryo/larva [10] = experiment: max % larvae unhatched across tested concentrations; max tested concentration (log10 uM): 2; higher = more toxic
Danio rerio embryo/larva [11] = experiment: max % larvae with any abnormality across tested concentrations; max tested concentration (log10 uM): 2; higher = more toxic; extreme values may be limits of the assay

Row | Compound | max % larvae (Danio rerio embryo/larva [1]) | max % larvae (Danio rerio embryo/larva [2]) | max % larvae (Danio rerio embryo/larva [3]) | max % larvae (Danio rerio embryo/larva [4]) | max % larvae (Danio rerio embryo/larva [5]) | max % larvae (Danio rerio embryo/larva [6]) | max % larvae (Danio rerio embryo/larva [7]) | max % larvae (Danio rerio embryo/larva [8]) | max % larvae generally abnormal across tested concentrations (Danio rerio embryo/larva [9]) | max % larvae unhatched across tested concentrations (Danio rerio embryo/larva [10]) | max % larvae (Danio rerio embryo/larva [11])
1 | O=P(O)(O)OCCC(F)(F)C(F)(F)C(F)(F)C(F)(F)C(F)(F)C(F)(F)F [6:2 Fluorotelomer phosphate monoester] (max tested concentration (log10 uM): 2) | 0% | 0% | 0% | 0% | 0% | 0% | 0% | 0% | 0% |  | 
2 | OCCC(F)(F)C(F)(F)C(F)(F)C(F)(F)F [4:2 Fluorotelomer alcohol] (max tested concentration (log10 uM): 2) | 0% | 4.17% | 0% | 0% | 0% | 0% | 0% | 0% | 4.17% |  | 
3 | OCC(F)(F)C(F)(F)C(F)(F)CO [Hexafluoroamylene glycol] (max tested concentration (log10 uM): 2) | 0% | 0% | 0% | 0% | 0% | 0% | 0% | 0% | 0% |  | 
4 | O=S(=O)(O)C(F)(F)C(F)(F)C(F)(F)C(F)(F)C(F)(F)C(F)(F)F [Potassium perfluorohexanesulfonate] (max tested concentration (log10 uM): 2) | 0% | 44.4% | 0% | 33.3% | 19.4% | 77.8% | 16.7% | 0% | 55.6% |  | 
5 | FC(F)(F)COC(OCC(F)(F)F)OCC(F)(F)F [tris(Trifluoroethoxy)methane] (max tested concentration (log10 uM): 2) | 0% | 0% | 0% | 0% | 0% | 0% | 0% | 0% | 0% |  | 
6 | NC(=O)C(F)(F)C(F)(F)C(F)(F)C(F)(F)C(F)(F)C(F)(F)C(F)(F)F [Perfluorooctanamide] (max tested concentration (log10 uM): 2) | 0% | 0% | 0% | 0% | 0% | 0% | 0% | 0% | 0% |  | 
7 | O=C(O)C(F)(F)C(F)(F)C(F)(F)C(F)(F)C(F)(F)C(F)(F)C(F)(F)F [Sodium perfluorooctanoate] (max tested concentration (log10 uM): 2) | 0% | 0% | 0% | 0% | 0% | 0% | 0% | 0% | 0% |  | 
8 | O=C(O)C(F)(F)C(F)(F)C(F)(F)C(F)(F)F [Perfluoropentanoic acid] (max tested concentration (log10 uM): 2) | 0% | 16.7% | 0% | 0% | 4.17% | 16.7% | 0% | 0% | 16.7% |  | 
9 | CN(C(=O)C(F)(F)C(F)(F)C(F)(F)F)[Si](C)(C)C [N-Methyl-N-trimethylsilylheptafluorobutyramide] (max tested concentration (log10 uM): 2) | 0% | 0% | 0% | 0% | 0% | 0% | 0% | 0% | 0% |  | 
10 | COC(=O)C(F)(F)C(F)(F)OC(F)(C(F)(F)F)C(F)(F)OC(F)=C(F)F (stereo not drawn) [Methyl perfluoro(3-(1-ethenyloxypropan-2-yloxy)propanoate)] (max tested concentration (log10 uM): 1.60206) | 0% | 8.33% | 0% | 0% | 4.17% | 0% | 0% | 0% | 8.33% |  | 
11 | O=C(O)C(F)(F)C(F)(F)C(F)(F)C(F)(F)C(F)(F)F [Perfluorohexanoic acid] (max tested concentration (log10 uM): 2) | 0% | 0% | 0% | 0% | 0% | 0% | 0% | 0% | 0% |  | 
12 | O=C(O)C(F)(F)C(F)(F)C(F)(F)C(F)(F)C(=O)O [Perfluorohexanedioic acid] (max tested concentration (log10 uM): 2) | 0% | 0% | 0% | 0% | 0% | 0% | 0% | 0% | 0% |  | 
13 | O=S(=O)(O)C(F)(F)C(F)(F)C(F)(F)C(F)(F)F [Perfluorobutanesulfonic acid] (max tested concentration (log10 uM): 2) | 0% | 0% | 0% | 0% | 0% | 0% | 0% | 0% | 0% |  | 
14 | FC(F)(F)C(F)(F)C(F)(F)C(F)(F)C(F)(F)C(F)(F)C(F)(F)CCI [1-Iodo-1H,1H,2H,2H-perfluorononane] (max tested concentration (log10 uM): 1.60206) | 0% | 0% | 0% | 0% | 0% | 0% | 0% | 0% | 0% |  | 
15 | CCCCCCCCC(F)(F)C(F)(F)C(F)(F)C(F)(F)C(F)(F)C(F)(F)F [1-(Perfluorohexyl)octane] (max tested concentration (log10 uM): 1.60206) | 0% | 0% | 0% | 0% | 0% | 0% | 0% | 0% | 0% |  | 
16 | OCC(F)(F)C(F)(F)C(F)(F)C(F)(F)C(F)(F)C(F)(F)C(F)(F)C(F)(F)C(F)(F)C(F)(F)C(F)(F)F [11:1 Fluorotelomer alcohol] (max tested concentration (log10 uM): 1.30103) | 0% | 0% | 0% | 0% | 0% | 0% | 0% | 0% | 0% |  | 
17 | O=C(O)C(F)(F)C(F)(F)C(F)(F)OC(F)(C(F)(F)F)C(F)(F)F [Perfluoro-4-isopropoxybutanoic acid] (max tested concentration (log10 uM): 2) | 0% | 0% | 0% | 0% | 0% | 0% | 0% | 0% | 0% |  | 
18 | NC(=O)C(F)(F)C(F)(F)C(F)(F)C(F)(F)F [Nonafluoropentanamide] (max tested concentration (log10 uM): 2) | 0% | 0% | 0% | 0% | 0% | 0% | 0% | 0% | 0% |  | 
19 | O=C(O)C(F)(F)OC(F)(F)C(F)(F)OC(F)(F)C(=O)O [Perfluoro-3,6-dioxaoctane-1,8-dioic acid] (max tested concentration (log10 uM): 2) | 0% | 0% | 0% | 0% | 0% | 0% | 0% | 0% | 0% |  | 
20 | CCN(CCO)S(=O)(=O)C(F)(F)C(F)(F)C(F)(F)C(F)(F)C(F)(F)C(F)(F)C(F)(F)C(F)(F)F [N-Ethyl-N-(2-hydroxyethyl)perfluorooctane sulfonamide] (max tested concentration (log10 uM): 2) | 0% | 8.33% | 0% | 0% | 0% | 8.33% | 0% | 0% | 8.33% |  | 
21 | O=C(O)C(F)(F)C(F)(F)C(F)(F)F [Perfluorobutanoic acid] (max tested concentration (log10 uM): 2) | 0% | 20% | 0% | 20% | 0% | 20% | 0% | 0% | 20% |  | 
22 | O=C(O)CCC(F)(C(F)(F)F)C(F)(F)F [4,4-bis(Trifluoromethyl)-4-fluoropropanoic acid] (max tested concentration (log10 uM): 2) | 0% | 0% | 0% | 0% | 0% | 0% | 0% | 0% | 0% |  | 
23 | OCCCC(F)(F)C(F)(F)C(F)(F)C(F)(F)C(F)(F)C(F)(F)C(F)(F)C(F)(F)F [3-(Perfluorooctyl)propanol] (max tested concentration (log10 uM): 2) | 0% | 0% | 0% | 0% | 0% | 0% | 0% | 0% | 0% |  | 
24 | O=C(CC(=O)C(F)(F)C(F)(F)C(F)(F)F)c1cccs1 [(Perfluorobutyryl)-2-thenoylmethane] (max tested concentration (log10 uM): 0.477121) | 0% | 8.33% | 0% | 8.33% | 0% | 16.7% | 0% | 0% | 8.33% |  | 
25 | O=C(O)C(F)(F)OC(F)(F)C(F)(F)OC(F)(F)C(F)(F)OC(F)(F)F [Perfluoro-3,6,9-trioxadecanoic acid] (max tested concentration (log10 uM): 2) | 0% | 45% | 20% | 40% | 25% | 100% | 40% | 30% | 70% |  | 
26 | O=C(O)C(F)(F)C(F)(F)C(F)(F)C(F)(F)C(F)(F)C(F)(F)C(F)(F)C(F)(F)C(F)(F)C(F)(F)C(F)(F)C(F)(F)F [Perfluorotridecanoic acid] (max tested concentration (log10 uM): 1.30103) | 0% | 16.7% | 0% | 16.7% | 8.33% | 16.7% | 16.7% | 0% | 16.7% |  | 
27 | OCC(F)(F)OC(F)(F)C(F)(F)OC(F)(F)C(F)(F)OC(F)(F)CO [1H,1H,11H,11H-Perfluorotetraethylene glycol] (max tested concentration (log10 uM): 1.47712) | 0% | 0% | 0% | 0% | 0% | 0% | 0% | 0% | 0% |  | 
28 | OCC(F)(F)C(F)(F)C(F)(F)C(F)(F)C(F)(F)C(F)F [1H,1H,7H-Dodecafluoro-1-heptanol] (max tested concentration (log10 uM): 2) | 0% | 8.33% | 0% | 0% | 0% | 0% | 0% | 0% | 8.33% |  | 
29 | O=C(Cl)C(F)(F)C(F)(F)C(F)(F)C(=O)Cl [Hexafluoroglutaryl chloride] (max tested concentration (log10 uM): 2) | 0% | 0% | 0% | 0% | 0% | 0% | 0% | 0% | 0% |  | 
30 | C=CC(=O)OCC(F)(F)C(F)(F)C(F)(F)C(F)(F)C(F)(F)C(F)(F)C(F)(F)C(F)F [1H,1H,9H-Perfluorononyl acrylate] |  |  |  |  |  |  |  |  |  | 0% | 16.7%
